Results taken from ChEMBL document CHEMBL6177946, “Design, synthesis and biological evaluation of Streptazolin analogs as anti-inflammatory agents” (Bioorg Med Chem Lett, 2025).
The source made the active and inactive calls. The calls are words filed in the database; no cut-off is given here.

Assays:
Pseudomonas aeruginosa = assay: Antibacterial activity against Pseudomonas aeruginosa assessed as inhibition of bacterial growth at 100 uM; assay type: functional, organism-based
Bacillus subtilis = assay: Antibacterial activity against Bacillus subtilis assessed as inhibition of bacterial growth at 100 uM; assay type: functional, organism-based
Staphylococcus aureus = assay: Antibacterial activity against Staphylococcus aureus assessed as inhibition of bacterial growth at 100 uM; assay type: functional, organism-based
Escherichia coli = assay: Antibacterial activity against Escherichia coli assessed as inhibition of bacterial growth at 100 uM; assay type: functional, organism-based
RAW264.7 [1] = assay: Anti-inflammatory activity against LPS-induced mouse RAW264.7 cells assessed as inhibition of NO production at 100 uM; assay type: functional, cell-based
RAW264.7 [2] = assay: Pro-inflamamtory activity in LPS-induced mouse RAW264.7 cells assessed as increase in NO production at 100 uM; assay type: functional, cell-based
[3] = Stability of the compound in dichloromethane measured after 2 months; assay type: physicochemical; conditions: 1460 h
RAW264.7 [4] = assay: Anti-inflammatory activity against LPS-induced mouse RAW264.7 cells assessed as inhibition of IL-1 beta production at 100 uM by ELISA; assay type: functional
RAW264.7 [5] = assay: Anti-inflammatory activity against LPS-induced mouse RAW264.7 cells assessed as inhibition of NO production; assay type: functional, cell-based
RAW264.7 [6] = assay: Cytotoxicity against mouse RAW264.7 cells assessed as effect on cell viability at 100 uM; assay type: toxicity, cell-based; conditions: raw264.7, 100 µM
RAW264.7 [7] = assay: Anti-inflammatory activity against LPS-induced mouse RAW264.7 cells assessed as inhibition of TNF-alpha production at 100 uM by ELISA; assay type: functional

Row | Stability [3] | IC50 (RAW264.7 [5]) [µM] | Compound | Activity (Pseudomonas aeruginosa) | Activity (Bacillus subtilis) | Activity (Staphylococcus aureus) | Activity (Escherichia coli) | Activity (RAW264.7 [1]) | Activity (RAW264.7 [2]) | inhibition at 100 µM (RAW264.7 [4]) [%] | Activity (RAW264.7 [5]) | Activity (RAW264.7 [6]) | inhibition at 100 µM (RAW264.7 [7]) [%]
1 | – | – | C/C=C1/C2=CCCN3C(=O)O[C@H]([C@@H]1Cl)[C@H]23 | inactive | inactive | inactive | inactive | – | – | – | – | – | –
2 | – | – | C/C=C1/C2=CCCN3C(=O)O[C@H]([C@H]1OC(C)=O)[C@H]23 | inactive | inactive | inactive | inactive | inactive | – | – | – | – | –
3 | – | – | C/C=C1/C2=CCCN3C(=O)O[C@H]([C@H]1OC(=O)CCCCCCCCCCC)[C@H]23 | inactive | inactive | inactive | inactive | inactive | – | – | – | – | –
4 | – | – | C/C=C1/C2=CCCN3C(=O)O[C@H]([C@H]1OC(=O)CCC)[C@H]23 | inactive | inactive | inactive | inactive | inactive | – | – | – | – | –
5 | – | – | C/C=C1/C2=CCCN3C(=O)O[C@H]([C@H]1OS(C)(=O)=O)[C@H]23 | inactive | inactive | inactive | inactive | Active | – | – | – | – | –
6 | – | – | C/C=C1/C2=CCCN3C(=O)O[C@H]([C@H]1OC(=O)CCCCCCCCC)[C@H]23 | inactive | inactive | inactive | inactive | inactive | Active | – | – | – | –
7 | – | – | C/C=C1/C2=CCCN3C(=O)O[C@H]([C@H]1OC(=O)C(C)(C)C)[C@H]23 | inactive | inactive | inactive | inactive | Active | – | – | – | – | –
8 | – | – | C/C=C1/C2=CCCN3C(=O)O[C@H]([C@H]1OS(=O)(=O)CCC)[C@H]23 | inactive | inactive | inactive | inactive | Active | – | – | – | – | –
9 | – | – | C/C=C1/C2=CCCN3C(=O)O[C@H]([C@H]1OC(=O)C(C)C)[C@H]23 | inactive | inactive | inactive | inactive | inactive | – | – | – | – | –
10 | – | – | C/C=C1/C2=CCCN3C(=O)O[C@H]([C@H]1OC(=O)C1CCCCC1)[C@H]23 | inactive | inactive | inactive | inactive | Active | – | – | – | – | –
11 | – | – | C/C=C1/C2=CCCN3C(=O)O[C@H]([C@H]1O)[C@H]23 | inactive | inactive | inactive | inactive | – | Active | – | – | – | –
12 | – | – | C/C=C1/C2=CCCN3C(=O)O[C@H]([C@H]1OC(=O)CC)[C@H]23 | inactive | inactive | inactive | inactive | inactive | – | – | – | – | –
13 | Stable | 8.8 | C/C=C1/C2=CCCN3C(=O)O[C@H]([C@H]1OC(=O)CCCC)[C@H]23 | inactive | inactive | inactive | inactive | Active | – | > 90 | Dose-dependent-effect | Non-toxic | ≤ 60
14 | – | – | C/C=C1/C2=CCCN3C(=O)O[C@H]([C@H]1OC(=O)c1ccc(C)cc1)[C@H]23 | inactive | inactive | inactive | inactive | Active | – | – | – | – | –
15 | – | – | C/C=C1/C2=CCCN3C(=O)O[C@H]([C@H]1OC(=O)c1ccccc1)[C@H]23 | inactive | inactive | inactive | inactive | Active | – | – | – | – | –
16 | – | – | C/C=C1/C2=CCCN3C(=O)O[C@H]([C@H]1OC(=O)/C=C/c1ccccc1)[C@H]23 | inactive | inactive | inactive | inactive | Active | – | – | – | – | –
